Data published in patent US4413005A, “Carbamate derivatives and insecticidal, miticidal or nematocidal compositions containing the same” (priority 1981, dated 1983).

What was measured:
[1] = test system: tobacco cutworm (Spodoptera litura); assay: Mortality of third-instar larvae of tobacco cutworm on cabbage (Test Example 1); type: in vivo; conditions: 72 h
Method: Ten third-instar larvae of tobacco cutworm (Spodoptera litura) were placed on a cabbage (one-month-old seedling) planted in a pot, and a 50% emulsion of the compound to be tested was diluted to a specified concentration and applied to the leaves of the plant to fully wet them. The test compound of each specified concentration was tested on two pots.

[2] = test system: green rice leafhopper (Nephotettix cincticeps); assay: Mortality of female adults of green rice leafhopper on paddy rice (Test Example 2); type: in vivo; conditions: 72 h
Method: An emulsion of specified concentration was prepared from a 50% wettable powder of the compound to be tested and applied to the leaves of paddy rice (one-month-old seedlings) planted in a pot to fully wet the leaves. After the emulsion had been dried, the pot was covered with a net cage, into which 10 female adults of green rice leafhopper (Nephotettix cincticeps) were released. The compound of each specified concentration was tested on two pots.

[3] = test system: house fly (Musca domestica); assay: Local application to house fly, LD50 by Probit method (Test Example 4); type: in vivo; conditions: topical, 24 h
Method: The compound to be tested was dissolved in a predetermined amount of acetone. The solution was diluted to various concentrations and locally applied to house fly (Musca domestica).

[4] = Acute oral toxicity in male mice, LD50 by Litchfield-Wilcoxon method (Test Example 5); conditions: mouse, in vivo, mortality on the seventh day
Method: Compounds of this invention were tested on male mice for acute toxicity by oral administration.

| Structure (SMILES) | mortality at 500 ppm [1] [%] | mortality at 1000 ppm [1] [%] | mortality at 2000 ppm [1] [%] | mortality at 200 ppm [2] [%] | mortality at 400 ppm [2] [%] | mortality at 800 ppm [2] [%] | LD50 [3] [mg/kg] | LD50 at 168 h [4] [mg/kg] |
| --- | --- | --- | --- | --- | --- | --- | --- | --- |
| Cc1ccc(N(CC#N)SN(C)C(=O)Oc2cccc3c2OC(C)(C)C3)cc1 [Example 36] | 65 | 80 | 100 | 60 | 75 | 95 | 59.3 | 70 |
| CCOC(=O)CN(CCC#N)SN(C)C(=O)Oc1cccc2c1OC(C)(C)C2 [Example 8] | 75 | 85 | 100 | 60 | 85 | 95 | 24.6 | 105 |
| CCOC(=O)CCCN(CC(=O)OCC)SN(C)C(=O)Oc1cccc2c1OC(C)(C)C2 [Example 10] | 75 | 85 | 100 | 60 | 90 | 100 | 46 | 115 |
| CN(SN(CCC#N)CCC#N)C(=O)Oc1cccc2c1OC(C)(C)C2 [Example 7, 2,3-dihydro-2,2-dimethylbenzofuran-7-yl N-[N,N-bis(cyanoethyl)aminosulfenyl]-N-methyl-carbamate] | 60 | 75 | 100 | 50 | 70 | 90 | 54 | 75 |
| CCOC(=O)CN(Cc1ccccc1)SN(C)C(=O)Oc1cccc2c1OC(C)(C)C2 [Example 19] | 65 | 85 | 100 | 60 | 80 | 100 | 22.2 | 108 |
| CCOC(=O)CN(SN(C)C(=O)Oc1cccc2c1OC(C)(C)C2)C(=O)OCC [Example 44, 2,3-dihydro-2,2-dimethylbenzofuran-7-yl N-(N-ethoxycarbonyl-N-ethoxycarbonylmethylaminosulfenyl)-N-methyl-carbamat] | 75 | 90 | 100 | 70 | 90 | 100 | 16.2 | 128 |
| CCOC(=O)CCN(SN(C)C(=O)Oc1cccc2c1OC(C)(C)C2)C1CCCCC1 [Example 32, 2,3-Dihydro-2,2-dimethylbenzofuran-7-yl N-(N-cyclohexyl-N-ethoxycarbonylethylaminosulfenyl)-N-methylcarbamate] | 65 | 80 | 100 | 55 | 75 | 100 | 32.7 | 107 |
| CCOC(=O)CCN(SN(C)C(=O)Oc1cccc2c1OC(C)(C)C2)C(=O)OCC [Example 52] | 70 | 85 | 100 | 65 | 85 | 100 | 54.3 | 125 |
| CCCCN(CCC(=O)OC)SN(C)C(=O)Oc1cccc2c1OC(C)(C)C2 [Example 28] | 75 | 90 | 100 | 65 | 90 | 100 | 17.7 | 89 |
| CCOC(=O)CN(SN(C)C(=O)Oc1cccc2c1OC(C)(C)C2)C(=O)CCl [Example 45] | 75 | 90 | 100 | 65 | 90 | 100 | 29.2 | 80 |
| CCOC(=O)CN(SN(C)C(=O)Oc1cccc2c1OC(C)(C)C2)C1CCCCC1 [Example 18] | 75 | 90 | 100 | 65 | 90 | 100 | 32.5 | 135 |
| CCOC(=O)CN(SN(C)C(=O)Oc1cccc2c1OC(C)(C)C2)C(=O)OC [Example 49] | 75 | 90 | 100 | 70 | 90 | 100 | 15.7 | 105 |
| CCOC(=O)N(CCC#N)SN(C)C(=O)Oc1cccc2c1OC(C)(C)C2 [Example 51] | 70 | 85 | 100 | 65 | 85 | 100 | 45.3 | 88 |
| CN(SN(CC(=O)OC1CCCCC1)CC(=O)OC1CCCCC1)C(=O)Oc1cccc2c1OC(C)(C)C2 [Example 5] | 65 | 80 | 100 | 45 | 80 | 100 | 75.6 | 90 |
| CCOC(=O)CN(SN(C)C(=O)Oc1cccc2c1OC(C)(C)C2)C(C)C [Example 15] | 75 | 90 | 100 | 65 | 90 | 100 | 33 | 110 |
| CCCCCCCCN(CCC#N)SN(C)C(=O)Oc1cccc2c1OC(C)(C)C2 [Example 41] | 65 | 80 | 100 | 60 | 75 | 95 | 54.6 | 105 |
| CC(C)N(CCC#N)SN(C)C(=O)Oc1cccc2c1OC(C)(C)C2 [Example 38] | 75 | 90 | 100 | 70 | 90 | 100 | 17.5 | 125 |
| CCOC(=O)CN(Cc1ccc(Cl)cc1)SN(C)C(=O)Oc1cccc2c1OC(C)(C)C2 [Example 20] | 65 | 85 | 100 | 60 | 80 | 100 | 61.9 | 75 |
| CCOC(=O)CCN(CCC(=O)OCC)SN(C)C(=O)Oc1cccc2c1OC(C)(C)C2 [Example 6, 2,3-dihydro-2,2-dimethylbenzofuran-7-yl N-[N,N-bis(ethoxycarbonylethyl)aminosulfenyl]-N-methylcarbamate] | 60 | 75 | 100 | 55 | 75 | 95 | 38.3 | 135 |
| COC(=O)CN(CC(=O)OC)SN(C)C(=O)Oc1cccc2c1OC(C)(C)C2 [Example 3] | 65 | 80 | 100 | 45 | 85 | 100 | 40 | 145 |
| CN(SN(CCC#N)C1CCCCC1)C(=O)Oc1cccc2c1OC(C)(C)C2 [Example 42] | 70 | 85 | 100 | 65 | 85 | 100 | 46 | 88 |
| CCCCN(CCC#N)SN(C)C(=O)Oc1cccc2c1OC(C)(C)C2 [Example 39, 2,3-Dihydro-2,2-dimethylbenzofuran-7-yl N-(N-n-butyl-N-cyanoethylaminosulfenyl)-N-methyl-carbamate] | 75 | 90 | 100 | 70 | 90 | 100 | 13.7 | 110 |
| CCOC(=O)CN(SN(C)C(=O)Oc1cccc2c1OC(C)(C)C2)C(=O)CC [Example 43, 2,3-dihydro-2,2-dimethylbenzofuran-7-yl N-(N-propionyl-N-ethoxycarbonylmethylaminosulfenyl)-N-methyl-carbamate] | 70 | 85 | 100 | 60 | 85 | 100 | 14.4 | 43 |
| CCCCCCCCN(CC(=O)OCC)SN(C)C(=O)Oc1cccc2c1OC(C)(C)C2 [Example 17] | 60 | 80 | 100 | 55 | 75 | 95 | 42.3 | 69 |
| CN(SN(CC#N)c1ccccc1)C(=O)Oc1cccc2c1OC(C)(C)C2 [Example 35] | 65 | 80 | 100 | 60 | 75 | 95 | 65.6 | 95 |
